Test results published in ChEMBL document CHEMBL1201862, “PubChem BioAssay data set” (2004).
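Following 48 hours of exposure in 96-well plates, responses at five concentrations were used to interpolate endpoints linearly. GI50 is the concentration that inhibits growth by half.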 The source made the active and inactive calls. Cut-off read from the data, not from the text of the source: active = GI50 up to about 1.1 µM and inactive = higher.

Columns and labels:
Experiment in all cases: growth of human tumour cells (NCI), 48 h
MOLT-4 = test system: MOLT-4
SNB-75 = test system: SNB-75
HT-29 = test system: HT-29
Hs-578T = test system: Hs-578T
UACC-257 = test system: UACC-257
NCI/ADR-RES = test system: NCI/ADR-RES
HL-60 = test system: HL-60
SNB-19 = test system: SNB-19
EKVX = test system: EKVX
UO-31 = test system: UO-31
SK-MEL-2 = test system: SK-MEL-2
OVCAR-5 = test system: OVCAR-5
HOP-62 = test system: HOP-62
MDA-MB-435 = test system: MDA-MB-435
SF-539 = test system: SF-539
SF-268 = test system: SF-268
T47D = test system: T47D
COLO 205 = test system: COLO 205
A498 = test system: A498

Row | Structure (SMILES) | GI50 (MOLT-4) | GI50 (SNB-75) | GI50 (HT-29) | GI50 (Hs-578T) | GI50 (UACC-257) | GI50 (NCI/ADR-RES) | GI50 (HL-60) | GI50 (SNB-19) | GI50 (EKVX) | GI50 (UO-31) | GI50 (SK-MEL-2) | GI50 (OVCAR-5) | GI50 (HOP-62) | GI50 (MDA-MB-435) | GI50 (SF-539) | GI50 (SF-268) | GI50 (T47D) | GI50 (COLO 205) | GI50 (A498)
1 | C=CCn1c(=O)c(C)cn(/C(=C/C(=O)OCC)C(=O)OCC)c1=O | 5.87 µM (inactive) | 11.1 µM (inactive) | 12.9 µM (inactive) | 24.5 µM (inactive) | 20.5 µM (inactive) | 21.1 µM (inactive) | 2.19 µM (inactive) | 46.9 µM (inactive) | 14 µM (inactive) | 15.7 µM (inactive) | 23.2 µM (inactive) | 16.4 µM (inactive) | 51.1 µM (inactive) | 13.5 µM (inactive) | 23.2 µM (inactive) | 18.9 µM (inactive) | 11.9 µM (inactive) | 4.55 µM (inactive) | 22.1 µM (inactive)
2 | CO[C@@]12C[C@H](CNC(=O)c3ccc[nH]3)O[C@@H]1NC(=O)N2 | > 100 µM (inactive) | > 100 µM (inactive) | > 100 µM (inactive) | > 100 µM (inactive) | > 100 µM (inactive) | > 100 µM (inactive) | > 100 µM (inactive) | > 100 µM (inactive) | > 100 µM (inactive) | > 100 µM (inactive) | > 100 µM (inactive) | > 100 µM (inactive) | > 100 µM (inactive) | > 100 µM (inactive) | > 100 µM (inactive) | > 100 µM (inactive) | > 100 µM (inactive) | > 100 µM (inactive) | > 100 µM (inactive)
3 | CO[C@H]1C[C@H](O[C@H]2CC[C@]3(C=O)[C@H]4CC[C@]5(C)[C@@H](C6=CC(=O)OC6)CC[C@]5(O)[C@@H]4CC[C@]3(O)C2)O[C@H](C)[C@H]1O[C@@H]1O[C@H](CO[C@@H]2O[C@H](CO)[C@@H](O)[C@H](O)[C@H]2O)[C@@H](O)[C@H](O)[C@H]1O | 0.0215 µM (active) | 0.11 µM (active) | 0.0442 µM (active) | 0.0278 µM (active) | 0.239 µM (active) | 0.034 µM (active) | 0.0361 µM (active) | 0.186 µM (active) | 0.0205 µM (active) | 0.0405 µM (active) | 0.235 µM (active) | 0.0671 µM (active) | 0.0158 µM (active) | 0.166 µM (active) | 0.0353 µM (active) | 0.0356 µM (active) | 0.0527 µM (active) | 0.103 µM (active) | 0.0891 µM (active)
4 | Cc1cc2c(cc1Cl)SC(c1ccccc1O)NS2(=O)=O (stereo unspecified) | 12.5 µM (inactive) | > 100 µM (inactive) | 45.4 µM (inactive) | 38.5 µM (inactive) | 53 µM (inactive) | 30.7 µM (inactive) | 59.7 µM (inactive) | 81.3 µM (inactive) | 56.9 µM (inactive) | 63.2 µM (inactive) | 87.3 µM (inactive) | 40.1 µM (inactive) | > 100 µM (inactive) | 45.7 µM (inactive) | 48.8 µM (inactive) | 91.4 µM (inactive) | 6.95 µM (inactive) | 20.8 µM (inactive) | > 100 µM (inactive)
5 | O=C1NC2(CCN(CCc3ccccc3)CC2)Oc2ccccc21 | 32.5 µM (inactive) | 36.9 µM (inactive) | 38 µM (inactive) | 15.3 µM (inactive) | 37.8 µM (inactive) | 38.2 µM (inactive) | 40.4 µM (inactive) | 85.3 µM (inactive) | 69.2 µM (inactive) | 49 µM (inactive) | > 100 µM (inactive) | 44.2 µM (inactive) | > 100 µM (inactive) | 53.5 µM (inactive) | > 100 µM (inactive) | > 100 µM (inactive) | 49.7 µM (inactive) | 31.5 µM (inactive) | 68.1 µM (inactive)
6 | Clc1ccc(/N=C/C=C/Nc2ccc(Cl)cn2)nc1 | 4.74 µM (inactive) | 13 µM (inactive) | 7.8 µM (inactive) | 5.14 µM (inactive) | 17.1 µM (inactive) | 15.2 µM (inactive) | 2.12 µM (inactive) | 16 µM (inactive) | 0.714 µM (active) | 15.6 µM (inactive) | 15.6 µM (inactive) | 16.3 µM (inactive) | 16.9 µM (inactive) | 14.5 µM (inactive) | 17.3 µM (inactive) | 16.4 µM (inactive) | 18.3 µM (inactive) | 12.6 µM (inactive) | 20.1 µM (inactive)
7 | C=C1C(=O)C2=C[C@H]1C[C@H](O)C(=O)[C@]1(C)CCCC(C)(C)[C@H]1C[C@H]2O | 0.979 µM (active) | 5.58 µM (inactive) | 1.47 µM (inactive) | 2.76 µM (inactive) | 1.86 µM (inactive) | 1.67 µM (inactive) | 0.237 µM (active) | 16.1 µM (inactive) | 1.73 µM (inactive) | 2.06 µM (inactive) | 7.19 µM (inactive) | 1.93 µM (inactive) | 12.9 µM (inactive) | 2.65 µM (inactive) | 1.33 µM (inactive) | 4.38 µM (inactive) | 1.11 µM (active) | 0.638 µM (active) | 1.86 µM (inactive)
8 | COC(=O)c1ccc(C)cc1C1CN=NC12Cc1cc(C)ccc1C2=O (stereo unspecified) | 10.3 µM (inactive) | 8.61 µM (inactive) | 3.32 µM (inactive) | 8.67 µM (inactive) | 17.7 µM (inactive) | 6.64 µM (inactive) | 3.58 µM (inactive) | 18.8 µM (inactive) | 23.4 µM (inactive) | 24 µM (inactive) | 8.22 µM (inactive) | 30 µM (inactive) | 20.1 µM (inactive) | 2.18 µM (inactive) | 13.9 µM (inactive) | 25.6 µM (inactive) | 20.8 µM (inactive) | 6.44 µM (inactive) | 12.1 µM (inactive)
9 | Cc1cc(-c2nc3ccc(F)cc3s2)ccc1NC(=O)[C@H](C)N | 2 µM (inactive) | 11.8 µM (inactive) | 2.56 µM (inactive) | 10.8 µM (inactive) | 5.04 µM (inactive) | 13.2 µM (inactive) | 2.07 µM (inactive) | 14.3 µM (inactive) | 8.38 µM (inactive) | 4.14 µM (inactive) | 12.4 µM (inactive) | 4.56 µM (inactive) | 8.22 µM (inactive) | 2.49 µM (inactive) | 6.32 µM (inactive) | 10 µM (inactive) | 0.0559 µM (active) | 9.77 µM (inactive) | 9.02 µM (inactive)
10 | CC(C)C(NC(=O)C(Cc1ccccc1)NC(=O)[C@H]1CCC[C@H]1NC(=O)C(N)Cc1ccc(O)cc1)C(N)=O (stereo partly specified) | > 100 µM (inactive) | > 100 µM (inactive) | > 100 µM (inactive) | > 100 µM (inactive) | > 100 µM (inactive) | > 100 µM (inactive) | > 100 µM (inactive) | > 100 µM (inactive) | > 100 µM (inactive) | > 100 µM (inactive) | > 100 µM (inactive) | > 100 µM (inactive) | > 100 µM (inactive) | > 100 µM (inactive) | > 100 µM (inactive) | > 100 µM (inactive) | > 100 µM (inactive) | > 100 µM (inactive) | > 100 µM (inactive)
11 | O=C(NCCCl)N(O)C(=O)Nc1ccccc1 | > 100 µM (inactive) | > 100 µM (inactive) | > 100 µM (inactive) | > 100 µM (inactive) | > 100 µM (inactive) | 74.6 µM (inactive) | > 100 µM (inactive) | > 100 µM (inactive) | > 100 µM (inactive) | > 100 µM (inactive) | > 100 µM (inactive) | > 100 µM (inactive) | > 100 µM (inactive) | > 100 µM (inactive) | > 100 µM (inactive) | > 100 µM (inactive) | > 100 µM (inactive) | > 100 µM (inactive) | > 100 µM (inactive)
12 | CN1c2ccc(Cl)cc2C(=O)NC1c1ccc([N+](=O)[O-])s1 (stereo unspecified) | 10.4 µM (inactive) | 12 µM (inactive) | 18.9 µM (inactive) | 17.3 µM (inactive) | 15.1 µM (inactive) | 15.3 µM (inactive) | 19.6 µM (inactive) | 30.1 µM (inactive) | 21.5 µM (inactive) | 12.1 µM (inactive) | 16.4 µM (inactive) | 20.2 µM (inactive) | 18.5 µM (inactive) | 16.3 µM (inactive) | 18.1 µM (inactive) | 3.75 µM (inactive) | 15 µM (inactive) | 21.5 µM (inactive) | 14.8 µM (inactive)
13 | O=C(O)c1ccccc1NC(c1ccccc1)c1ccc2cccnc2c1O (stereo unspecified) | 4.06 µM (inactive) | 29.3 µM (inactive) | 4.4 µM (inactive) | 22.4 µM (inactive) | 14 µM (inactive) | 3.77 µM (inactive) | 1.2 µM (inactive) | 5.24 µM (inactive) | 6.18 µM (inactive) | 6.12 µM (inactive) | 25.2 µM (inactive) | 8.97 µM (inactive) | 7.67 µM (inactive) | 14.8 µM (inactive) | 5.14 µM (inactive) | 5.19 µM (inactive) | 11.3 µM (inactive) | 15.7 µM (inactive) | 24.6 µM (inactive)
14 | COc1cc(C(=O)N(C)N(C)C)cc(OC)c1OC | > 10 µM (inactive) | > 10 µM (inactive) | > 10 µM (inactive) | > 10 µM (inactive) | > 10 µM (inactive) | > 10 µM (inactive) | > 10 µM (inactive) | > 10 µM (inactive) | > 10 µM (inactive) | > 10 µM (inactive) | > 10 µM (inactive) | > 10 µM (inactive) | > 10 µM (inactive) | > 10 µM (inactive) | > 10 µM (inactive) | > 10 µM (inactive) | > 10 µM (inactive) | > 10 µM (inactive) | > 10 µM (inactive)
